How the values were obtained:
[1] = Aggregation state / apparent diameter of aggregates; type: physicochemical
BmrA [2] = target: T1, BmrA (Bacillus subtilis, UniProt O06967); test: Solubilization of BmrA from enriched membrane fractions (centrifugation, SDS PAGE); type: biochemical, E. coli membrane fraction; conditions: for Solubilization of BmrA (found in supernatant): detergent 10 mg/ml (1%), 2 mg proteins/ml, 2 hrs at 4° C., FIG. 7; for Solubilization of BmrA: FIG. 8
T1 construct: made in house; host or cells: E. coli C41 BL21(DE3), plasmid pET15b-BMRA; isolated membrane fraction
Source text: The gray and black dotted lines and the black line serve as a scale of the efficacy of the molecules to be solubilized. The “no det” lines signify “without detergent”.
The experimental conditions are those of FIG. 7, with the exception of the concentrations of the butyl, heptyl and dodecyl molecules which are as indicated in the figure, for which the g/L<->M correspondence is indicated in Table 2. The “no det” lines signify “without detergent”.
The competent bacteria C41 BL21(DE3) E. coli (Escherichia coli) were transformed with the plasmid pET15b-BMRA bearing the gene coding for BmrA and placed under the control of an inducible promoter and a gene coding for the protein conferring resistance to ampicillin. A positive clone was cultured in a liquid medium at 37° C. and 200 rpm in the presence of ampicillin until a semi-exponential growth phase. The expression of BmrA is induced by addition of 1 mM of isopropyl thio β-galactoside and continued at 25° C. for 4 hrs. The bacteria were harvested by centrifugation, disrupted in a French press, and the membrane fraction was isolated by a series of centrifugation stages at low and high speeds. The protein content was evaluated by colorimetry and set at 20 mg/ml (20 mM Tris-Cl pH 8.0, […] NaCl, 300 mM sucrose) before freezing and storage in liquid nitrogen. Before use, the membrane fraction is then rapidly thawed in water and maintained at 4° C. in ice.
The solubilization is effected at 4° C.

[3] = Critical Micellar Concentration estimated from surface tension data; type: physicochemical
Protocol: The effect of the molecules having an alkyl chain with 1 to 12 methylene groups (m, x axis in the figure) on the CMC is measured at a concentration of 10^−2 M, at pH 6.0 (solid circles) and 8.0 (open circles). Each point corresponds to the mean of three values, estimated from the data from FIG. 2.
(§1) The surfactant properties of the calixarenes of formula (I) are evaluated in a 1 ml sitting drop by means of a Kibron micro-depression instrument and using a stainless steel syringe and a Wilhelmy balance. The curves obtained are processed with the software Sigmaplot v11.
Critical Micellar Concentration (CMC) is understood to mean the concentration beyond which the concentration of the detergent molecules no longer increases since said molecules are involved in micelles (FIG. 13). […] Conversely, when the alkyl chains include more than 8 methylene groups, the resulting CMC decreases appreciably to 0.15 mM when the pH increases from 6 to 8.

BmrA [4] = target: T1, BmrA; test: Vanadate-sensitive ATPase activity of BmrA after solubilization; type: biochemical; conditions: for ATPase activity of BmrA after reconstitution in liposomes: after removal of the detergents; for Loss of ATPase activity of BmrA once solubilized: relative to BmrA activity in natural membranes; for Effect on ATPase activity of BmrA: 1 mg/ml; for Effect on ATPase activity of BmrA / ATPase activity of BmrA with solubilization: FIG. 9; for ATPase activity of BmrA with solubilization: increasing detergent concentration
Source text: The solubilization tests take place as in FIG. 8 and the ATPase activity tests are described in example 11. The vertical dotted lines show the CMC of each compound. The black lozenges correspond to a test in which BmrA is solubilized with p(COOH)3—Ar4-o(C7H15) then reconstituted in lipids after removal of the detergent with biobeads (Bio-Rad) according to the procedure described in Lenoir et al..
The percentage of specific ATPase activity sensitive to vanadate (% SA or % VO4 sensitive Specific ATPase Activity) is evaluated for the following different cases: • BmrA Mb: activity of BmrA in natural membranes, • DDM sup./DDM: activity of BmrA in the DDM extract, • DDM sup./Lip.: activity of BmrA from the DDM extract and reconstituted in liposomes, • FC12 sup./FC12: activity of BmrA in the Foscholine 12 extract, • FC12 sup./Lip.: activity of BmrA from the Foscholine 12 extract and reconstituted in liposomes, • C4C7 sup./[…]: activity of BmrA in the calixarene C4C7 (in other words calix[4]arene-O-heptyloxy) extract, • C4C7 sup./Lip.: activity of BmrA from the calixarene C4C7 extract and reconstituted in liposomes.
FIG. 12 summarizes the results of an extraction successively using the calixarenes C4C3 then C4C7 (FIG. 12A) followed by purification by gel filtration chromatography (FIGS. 12B-E).
The ATPase activity is measured by evaluating the inorganic phosphate content (Pi) after 5 minutes of incubation at 37° C. The fraction of Pi produced by other ATPase activities is deducted by measuring the same activity in the presence of 1 mM of ortho vanadate which inhibits the ATPase activity of BmrA (for example as described in [10]).
The effect of the solubilization by the p(COOH)3—Ar4-o(CnH2n+1) series on the ATPase activity of BmrA was analyzed under the same conditions as in FIG. 8.
The effects of the solubilization on the activity of the BmrA protein were evaluated with various C4Cn calixarenes, in other words the p(COOH)3—Ar4-o(CnH2n+1) calixarenes, but also with the control detergents such as Foscholine 12 (FC12) and β-D-dodecyl maltopyranoside (DDM), then the extracts obtained (supernatant fractions) were dialyzed in the presence of liposomes in order to restore a membrane environment, which enables the recovery of the activity of the protein.

[5] = Surface tension measurement of water (surfactant properties); type: physicochemical
Source text: The effect of the derivatives of calix[4]arene containing alkyl chains with 1 to 12 carbon atoms on the surface tension of water was followed as a function of the concentration of said derivatives (molar M or mol/L) at pH 6.0 (not exposed) and 8.0 (exposed). The surface-active properties of DDM (β-D-dodecyl malto-pyranoside) are also shown in this figure. Each point corresponds to the mean of three values.
The effect of the molecules containing an alkyl chain having from 1 to 12 methylene groups (n, x axis in FIG. 3) on the surface tension of water was measured at a concentration of 10^−2M, at pH 6.0 (open circles) and at pH 8.0 (squares). Each point corresponds to the mean of three values.
as §1

[6] = Modulation of surfactant potential by amino acids (surface tension); type: physicochemical; conditions: compound 10^−2 M, pH 8.0
Protocol: The compound p(COOH)3—Ar4-o(C7H15) is present at a concentration of 10^−2 M whereas that of the amino acids vary as indicated. The surface tension is measured at pH 8.0. The amino acids are indicated by their three-letter code: Glu=glutamic acid, Trp=tryptophan, Asn=asparagine, Gly=glycine, Ala=alanine, Ser=serine, Phe=phenylalanine, Leu=leucine, Pro=Proline, Lys=lysine, His=histidine, Arg=arginine. Each point corresponds to the mean of three values.
as §1

T1 sequence (O06967 whole entry): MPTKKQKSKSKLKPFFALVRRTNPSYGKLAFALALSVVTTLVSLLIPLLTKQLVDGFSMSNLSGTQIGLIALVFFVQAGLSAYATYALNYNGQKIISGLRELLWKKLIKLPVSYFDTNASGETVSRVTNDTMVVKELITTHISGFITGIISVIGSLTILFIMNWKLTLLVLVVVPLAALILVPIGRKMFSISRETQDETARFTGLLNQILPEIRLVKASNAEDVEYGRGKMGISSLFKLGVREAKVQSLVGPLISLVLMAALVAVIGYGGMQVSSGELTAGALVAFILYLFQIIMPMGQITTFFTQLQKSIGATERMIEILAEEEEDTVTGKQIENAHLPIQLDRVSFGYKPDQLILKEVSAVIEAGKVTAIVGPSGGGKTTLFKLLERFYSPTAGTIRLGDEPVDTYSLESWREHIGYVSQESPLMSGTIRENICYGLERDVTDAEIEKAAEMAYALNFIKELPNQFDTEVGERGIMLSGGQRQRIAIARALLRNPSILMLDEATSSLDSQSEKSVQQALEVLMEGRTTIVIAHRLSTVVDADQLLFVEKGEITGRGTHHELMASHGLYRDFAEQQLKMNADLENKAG

CCCCOc1c2cccc1Cc1cc(CC(=O)O)cc(c1O)Cc1cc(CC(=O)O)cc(c1O)Cc1cc(CC(=O)O)cc(c1O)C2 [compound 5b, 5,11,17 tris-[(carboxylato)methyl]25-mono-butyloxy 26,27,28 tris-hydroxycalix[4]arene]
Apparent diameter (nm) ([1]; pH 2): 500 nm
Apparent diameter (nm) ([1]; pH 6): 145 nm
Solubilization of BmrA (found in supernatant) (BmrA [2]): increases progressively

COc1c2cccc1Cc1cc(CC(=O)O)cc(c1O)Cc1cc(CC(=O)O)cc(c1O)Cc1cc(CC(=O)O)cc(c1O)C2 [compound 5a, 5,11,17 tris-[(carboxylato)methyl]25-mono-methyloxy 26,27,28 tris-hydroxycalix[4]arene]
Apparent diameter (nm) ([1]; pH 2): 950 nm
Apparent diameter (nm) ([1]; pH 4): 340 nm
Apparent diameter (nm) ([1]; pH 8): 270 nm
Solubilization of BmrA (found in supernatant) (BmrA [2]): No solubilization
CMC [3]: >1.5 mM

CCCCCCCCCCCCO[C@@H]1O[C@H](CO)[C@@H](O[C@H]2O[C@H](CO)[C@@H](O)[C@H](O)[C@H]2O)[C@H](O)[C@H]1O [DDM, n-dodecyl-β-D-maltopyranoside]
ATPase activity of BmrA after reconstitution in liposomes (BmrA [4]; FIG. 11): recovered
Loss of ATPase activity of BmrA once solubilized (BmrA [4]; FIG. 11): 95%
Solubilization of BmrA (found in supernatant) (BmrA [2]): more pronounced

CCCCCCOc1c2cccc1Cc1cc(CC(=O)O)cc(c1O)Cc1cc(CC(=O)O)cc(c1O)Cc1cc(CC(=O)O)cc(c1O)C2 [compound 5c]
Apparent diameter (nm) ([1]; pH 2): 850 nm
Apparent diameter (nm) ([1]; pH 6): 400 nm
Solubilization of BmrA (found in supernatant) (BmrA [2]): more pronounced

CCCCCCCCCCCCOc1c2cccc1Cc1cc(CC(=O)O)cc(c1O)Cc1cc(CC(=O)O)cc(c1O)Cc1cc(CC(=O)O)cc(c1O)C2 [compound 5d, 5,11,17 tris-[(carboxylato)methyl]25-mono-dodecyl 26,27,28 tris-hydroxycalix[4]arene]
Effect on ATPase activity of BmrA (BmrA [4]): does not lead to inactivation
Apparent diameter (nm) ([1]; pH 2): 880 nm
Apparent diameter (nm) ([1]; pH 6): 190 nm
Solubilization of BmrA (BmrA [2]; 1 mg/ml): rather effectively
Solubilization of BmrA (BmrA [2]; at CMC of 0.15 mM (0.1 g/L)): no solubilization
CMC [3]: ~0.15 mM
Critical Micellar Concentration (CMC) [3]: 0.15 mM
Surface tension plateau relative to initial surface tension ([5]; 10^−2 M, pH 8.0, FIG. 3): half the initial surface tension
Surfactant properties (ability to decrease the surface tension of water) ([5]; as a function of concentration, FIG. 2): surfactant properties close to those of DDM

CCCCCCCCCCCCOCCOCCOCCOCCOCCOCCOCCOCCO [C12E8]
ATPase activity of BmrA with solubilization (BmrA [4]): decreases with the solubilization

CCCCCCCCCCCCOP(=O)([O-])OCC[N+](C)(C)C [FC12, n-dodecylphosphocholine]
ATPase activity of BmrA after reconstitution in liposomes (BmrA [4]; FIG. 11): recovered
ATPase activity of BmrA with solubilization (BmrA [4]): decreases with the solubilization
Loss of ATPase activity of BmrA once solubilized (BmrA [4]; FIG. 11): 99%
Solubilization of BmrA (found in supernatant) (BmrA [2]): complete

calix[4]arene-O-heptyloxy [C4C7]
Effect of amino acid on surface tension ([6]; alanine, phenylalanine, leucine): amplified
Effect of amino acid on surface tension ([6]; glutamic acid or asparagine): No effect
Effect of amino acid on surface tension ([6]; glycine): moderate effect
Effect of amino acid on surface tension ([6]; positively charged amino acids histidine, lysine, arginine, listed as n=7): very pronounced
Effect of amino acid on surface tension ([6]; positively charged amino acids histidine, lysine, arginine, listed as p(COOH)3—Ar4-o(C7H15)): easily increased
Effect on ATPase activity of BmrA (BmrA [4]): does not lead to inactivation
ATPase activity of BmrA preserved (BmrA [4]; C4C3 and C4C7 used successively, FIG. 11): about 50%
ATPase activity of BmrA fraction after gel filtration (BmrA [4]; extracted with C4C7, gel filtration in the presence of FC12, fraction a FIG. 12E): recovered active
ATPase activity of BmrA fraction reconstituted in liposomes (BmrA [4]; extracted with C4C7, gel filtration, then liposomes, fraction b FIG. 12E): elevated ATPase activity was recovered
Solubilization of BmrA (BmrA [2]; 1 mg/ml): rather effectively
CMC [3]: ~1.5 mM
Critical Micellar Concentration (CMC) [3]: about 1.5 mM
